Data as given in ChEMBL document CHEMBL1156904, “Part II: piperazinyl-glutamate-pyridines as potent orally bioavailable P2Y12 antagonists for inhibition of platelet aggregation” (Bioorg Med Chem Lett, 2010).

Columns and labels:
[1] = Metabolic stability in rat microsomes; format: ADME, Microsome
[2] = Antiplatelet activity in human platelet rich plasma assessed as inhibition of ADP-induced platelet aggregation; format: functional
[3] = Antiplatelet activity in human platelet rich plasma assessed as inhibition of ADP-induced platelet aggregation relative to AZD-6140; format: functional
[4] = Metabolic stability in human microsomes; format: ADME, Microsome
[5] = molecular target: P2Y purinoceptor 12 (Homo sapiens, UniProt Q9H244); assay: Inhibition of human P2Y12 receptor expressed in CHO cells
P2Y purinoceptor 12, sequence (Q9H244 whole entry): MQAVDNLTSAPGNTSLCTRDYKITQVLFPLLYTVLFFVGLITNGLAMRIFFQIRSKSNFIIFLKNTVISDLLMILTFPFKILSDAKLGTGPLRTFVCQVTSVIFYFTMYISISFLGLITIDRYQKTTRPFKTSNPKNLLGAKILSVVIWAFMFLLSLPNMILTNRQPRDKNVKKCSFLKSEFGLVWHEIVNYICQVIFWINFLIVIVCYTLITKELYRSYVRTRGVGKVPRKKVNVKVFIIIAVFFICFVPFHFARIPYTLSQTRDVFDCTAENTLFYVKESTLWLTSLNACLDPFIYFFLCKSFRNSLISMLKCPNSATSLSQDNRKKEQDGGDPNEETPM

Stability [1] | IC50 [2] [nM] | Stability [4] | Ki [5] [nM] | Compound | fold change (FC) [3]
Stable | 680 | Stable | 8.9 | CCCCCOC(=O)N1CCN(C(=O)[C@H](CCC(=O)O)NC(=O)c2cc(N3CCN(CCS(C)(=O)=O)CC3)cc(-c3ccccc3)n2)CC1 | 0.81
Stable | 950 | Stable | 1.5 | CCCCCOC(=O)N1CCN(C(=O)[C@H](CCC(=O)O)NC(=O)c2cc(N3CCC(CNCC)CC3)cc(-c3ccccc3)n2)CC1 | 1.2
Stable | 710 | Stable | 1.5 | CCCCCOC(=O)N1CCN(C(=O)[C@H](CCC(=O)O)NC(=O)c2cc(N3CCC(CNC)CC3)cc(-c3ccccc3)n2)CC1 | 0.99
Stable | 780 | Stable | 15 | CCCCCOC(=O)N1CCN(C(=O)[C@H](CCC(=O)O)NC(=O)c2cc(N3CCC(CN)CC3)cc(-c3ccccc3)n2)CC1 | 0.62
Stable | 2400 | Stable | 7.5 | CCCCOC(=O)N1CCN(C(=O)[C@H](CCC(=O)O)NC(=O)c2cc(N3CCC(CN(CC)CC)CC3)cc(-c3ccccc3)n2)CC1 | 2.1
Stable | 1000 | Stable | 1.9 | CCCCCOC(=O)N1CCN(C(=O)[C@H](CCC(=O)O)NC(=O)c2cc(N3CCC(CN(C)C)CC3)cc(-c3ccccc3)n2)CC1 | 1.3
Stable | 7300 | Stable | 31 | CCCCCOC(=O)N1CCN(C(=O)C(CCC(=O)O)NC(=O)c2cc(N3CCC(COC)C3)cc(-c3ccccc3)n2)CC1 (mixture of isomers) | 10
Stable | 4800 | Stable | 1.7 | CCCCCOC(=O)N1CCN(C(=O)[C@H](CCC(=O)O)NC(=O)c2cc(N3CC[C@H](C(=O)N(CC)CC)C3)cc(-c3ccccc3)n2)CC1 | 4.6
Stable | 860 | Stable | 2.8 | CCCCCOC(=O)N1CCN(C(=O)[C@H](CCC(=O)O)NC(=O)c2cc(N3CCC(CCN)CC3)cc(-c3ccccc3)n2)CC1 | 0.66
Stable | 6800 | Stable | 25 | CCCCCOC(=O)N1CCN(C(=O)[C@H](CCC(=O)O)NC(=O)c2cc(N3CCC(CNC(C)=O)CC3)cc(-c3ccccc3)n2)CC1 | 3.9
Stable | 2200 | Stable | 1.4 | CCCCCOC(=O)N1CCN(C(=O)[C@H](CCC(=O)O)NC(=O)c2cc(N3CC[C@@H](C(=O)N4CCCC4)C3)cc(-c3ccccc3)n2)CC1 | 1.7
Stable | 1800 | Stable | 13 | CCCCCOC(=O)N1CCN(C(=O)[C@H](CCC(=O)O)NC(=O)c2cc(N3CCN(CCO)CC3)cc(-c3ccccc3)n2)CC1 | 1.1
Stable | 1400 | Stable | 3.3 | CCCCCOC(=O)N1CCN(C(=O)[C@H](CCC(=O)O)NC(=O)c2cc(N3CC(N4CCOCC4)C3)cc(-c3ccccc3)n2)CC1 | 
Stable | 2000 | Stable | 12 | CCCOC(=O)N1CCN(C(=O)[C@H](CCC(=O)O)NC(=O)c2cc(N3CCC(C(=O)N(CC)CC)CC3)cc(-c3ccccc3)n2)CC1 | 2.3
Stable | 6100 | Stable | 10 | CCCCCOC(=O)N1CCN(C(=O)[C@H](CCC(=O)O)NC(=O)c2cc(N3CCN(C(=O)N4CCCC4)CC3)cc(-c3ccccc3)n2)CC1 | 14
Stable | 1900 | Stable | 6.3 | CCCCCOC(=O)N1CCN(C(=O)[C@H](CCC(=O)O)NC(=O)c2cc(N3CCN(C(N)=O)CC3)cc(-c3ccccc3)n2)CC1 | 1.8
Stable | 2700 | Stable | 11 | CCCCCOC(=O)N1CCN(C(=O)[C@H](CCC(=O)O)NC(=O)c2cc(N3CCC(CCOC)CC3)cc(-c3ccccc3)n2)CC1 | 3.5
Stable | 820 | Stable | 4.8 | CCCCCCOC(=O)N1CCN(C(=O)[C@H](CCC(=O)O)NC(=O)c2cc(N3CCC(C(=O)N(CC)CC)CC3)cc(-c3ccccc3)n2)CC1 | 1.7
Stable | 1600 | Stable | 5.2 | CCCCCOC(=O)N1CCN(C(=O)[C@H](CCC(=O)O)NC(=O)c2cc(N3CCN(CC(=O)N4CCCC4)CC3)cc(-c3ccccc3)n2)CC1 | 2.2
Stable | 510 | Stable | 1.7 | CCCCCOC(=O)N1CCN(C(=O)[C@H](CCC(=O)O)NC(=O)c2cc(N3CCN(CC(N)=O)CC3)cc(-c3ccccc3)n2)CC1 | 1.8
Stable | 3200 | Stable | 12 | CCCCCOC(=O)N1CCN(C(=O)[C@H](CCC(=O)O)NC(=O)c2cc(N3CCN(C(=O)N(CC)CC)CC3)cc(-c3ccccc3)n2)CC1 | 4.6
Stable | 8600 | Stable | 2.5 | CCCCCOC(=O)N1CCN(C(=O)[C@H](CCC(=O)O)NC(=O)c2cc(N3CC(O)C3)cc(-c3ccccc3)n2)CC1 | 9.2
Stable | 1900 | Stable | 0.64 | CCCCCOC(=O)N1CCN(C(=O)[C@H](CCC(=O)O)NC(=O)c2cc(N3CC(C(N)=O)C3)cc(-c3ccccc3)n2)CC1 | 
Stable | 11000 | Stable | 22 | CCCCCOC(=O)N1CCN(C(=O)[C@H](CCC(=O)O)NC(=O)c2cc(N3CCCC(COC)C3)cc(-c3ccccc3)n2)CC1 (some centres undefined) | 
Stable | > 10000 | Stable | 2 | CCCCCOC(=O)N1CCN(C(=O)[C@H](CCC(=O)O)NC(=O)c2cc(N3CC(OC)C3)cc(-c3ccccc3)n2)CC1 | 
Stable | 2700 | Stable | 5.5 | CCCCCOC(=O)N1CCN(C(=O)[C@H](CCC(=O)O)NC(=O)c2cc(N3CC(N(C)C)C3)cc(-c3ccccc3)n2)CC1 | 
Stable | 2000 | Stable | 1.7 | CCCCCOC(=O)N1CCN(C(=O)[C@H](CCC(=O)O)NC(=O)c2cc(N3CC(C(=O)NC)C3)cc(-c3ccccc3)n2)CC1 | 
